Source: US20180171321A1, “PLATFORM FOR A NON-NATURAL AMINO ACID INCORPORATION INTO PROTEINS” (THE UNIVERSITY OF QUEENSLAND, priority 2015, published 2018)
Entries after “also recorded” stand apart in the source; their conditions may differ.

Assays:
[1] = test system: amber codon in A_151X template; assay: Amber suppression by flexizyme-precharged nnAA-tRNA, A_151X template; type: biochemical, E. coli; details: five nnAAs; precharged tRNA 10, 20 or 30 uM
Source text: FIG. 29. The incorporation efficiency of 5 nnAAs precharged by flexizyme with their respective active group. A: The structure of five activated acid substrates for tRNA acylation by Flexizyme, including L-Propargylglycine 4-chlorobenzyl thioester (Pra-CBT), L-Azidolysine 4-chlorobenzyl thioester (Lys(N3)-CBT), L-Azidohomoalanine 4-chlorobenzyl thioester (Aha-CBT), NE-biotinyl-L-lysine 3,5-dinitrobenzyl ester (Lys(biotin)-DBN) and L-Azidophenylalanine-cyanomethyl ester (AzF-CME). The nnAAs are shown in black while their respective active groups in red. B: The amber suppression efficiency of 5 nnAAs precharged tRNA tested by using A_151X template in the cell free translation system. The precharged tRNA was used to prime the translational reactions at 10, 20 or 30 uM of final tRNA concentration. The flexizyme reaction time and the final concentration of precharged nnAA-tRNAs were indicated.
C-terminal Cys were added into sequence of the affinity clamp protein (pdz-fibronectin Fusion Protein, PDB: 3CH8_A). The purified protein with C-terminal Cys was immobilized on Iodoacetyl Gel (UltraLink®) using manufacture's protocol. tRNA charging by flexizyme for amber suppression: The acylation reaction were performed as described before^62. 1 volume of 250 μM o-tRNA was mixed with the same volume of 50 μM Fx ([…]) and 3 volume of water. […]

[2] = test system: AGG codon in GFP ORFs; assay: AGG reassignment to AzF in cell-free system depleted of tRNA species decoding AGG; type: biochemical, E. coli; details: all four templates
Procedure: FIG. 23. AGG reassignment to AzF in the context of four GFP ORFs. The GFP protein was expressed in cell-free system depleted of tRNA species decoding AGG codon with and without addition of MjY suppression system (MjY2/AzFRS). The final concentrations for MjY2, AzFRS, AzF are were 10 μM, 10 μM and 1 mM, respectively. The anticodon in MjY2 was changed to CCU in order to reassign AGG codon to AzF.
The tRNA-depleted lysate is prepared as described by ethanolamine-sepharose affinity chromatography^24. DNA templates with two GFP ORFs: one of optimized codon composition for eGFP (Template A) and the other of simplified codon composition for sGFP (Template B), were used. Mutations to amber or AGG-codon were introduced either by synthesizing the whole gene fragments as gBlocks by IDT to change all the 6 Arg codons to AGG simultaneously or using PCR with the proper primers to introduce mutations with less than 3 nucleotides at the same position. […] The sequence information of all the open reading frames used here is provided in SI.
The cell-free translation reactions for GFP production were performed following the standard protocol^60 with the optimized Mg^2+ at 10 mM concentration. […] GFP production was monitored on a fluorescence plate reader (Synergy) at 30° C. for 3-5 h at 485 nm excitation and 528 nm emission wavelengths. […]

[3] = test system: amber codon (UAG) in GFP templates; assay: Amber codon suppression in E. coli cell-free translation system (GFP fluorescence); type: biochemical
Source text: FIG. 22. Comparative analysis of amber codon suppression efficiencies in E. coli cell-free translation system with different nnAA/o-tRNA/aaRS combinations. A: The structure of nnAAs used here. B-D: Suppression Amber suppression of A_151X template. The suppression efficiency is defined as a ratio compared to the fluorescence of percentage of wild type eGFP fluorescence wild type eGFP without stop codon inside its ORF. B: Incorporation of four nnAAs by three PylRS variants. The final concentrations of PylTcua, PylRS variants and nnAAs were 20 μM, 20 μM and 1 mM, respectively. C: AzF incorporation by four MjY tRNA variants. MjY1, MjY2, MjY3 and MjY4 are corresponding to the tRNAs pAzPhe1, pAzPhe2, pAzPhe3 and tRNAopt CUA in original publication^35,37. The final concentrations of MjYtRNA variants, AzFRS and AzF are 10 μM, 10 μM and 1 mM, respectively. D: Effect of o-tRNA and o-aaRS concentrations on amber codon suppression efficiency of MjY2/AzFRS/AzF and PylT/PylRSAF/PrK. E: The effect of codon contexts on nnAA incorporation efficiency in two orthogonal systems. The concentration of MjY2 and AzFRS were 10 μM for both while PylT and PylRS were used at 20 and 30 μM, respectively. Four templates, named A_1X, A_151X, B_1X and B_151X, were used in the analysis (sequences are shown in SI). A and B denote the template backbones with different codon biases where codon vocabulary in A is optimized for eGFP while in B it is simplified mostly utilizing the unique codon to decode each amino acid type. The numeric indicates the position of amber codon in ORF sequence. The relative activity in individual reactions is given as a percent of fluorescent intensity provided while obtained when using EctRNATyr(cua) as a suppressor.
The tRNA-depleted lysate is prepared as described by ethanolamine-sepharose affinity chromatography^24. DNA templates with two GFP ORFs: one of optimized codon composition for eGFP (Template A) and the other of simplified codon composition for sGFP (Template B), were used. Mutations to amber or AGG-codon were introduced either by synthesizing the whole gene fragments as gBlocks by IDT to change all the 6 Arg codons to AGG simultaneously or using PCR with the proper primers to introduce mutations with less than 3 nucleotides at the same position. The obtained fragments were cloned into the pLTE or pOPINE-based plasmids following the standard Gibson assembly cloning procedure (NEB). The correct plasmids with desired mutations were purified by Midiprep Kit (Qiagen) to ensure good quality for cell free protein translation. The sequence information of all the open reading frames used here is provided in SI.
The cell-free translation reactions for GFP production were performed following the standard protocol^60 with the optimized Mg^2+ at 10 mM concentration. 0.35 volume of depleted lysate, same as that for the standard S30 lysate, was used in the reaction. […] GFP production was monitored on a fluorescence plate reader (Synergy) at 30° C. for 3-5 h at 485 nm excitation and 528 nm emission wavelengths.
We tested the recombinant forms of PylRS variants for their ability to support in vitro synthesis of eGFP synthesis from the template containing amber-codon at 151 position (A_151X, SI) in the presence of an evolved o-tRNA harboring U25C mutation in its anticodon stem (PylT)^14 and nnAA-substrates BCN, TCO or TCO*. Another nnAA PrK (FIG. 22A) for also used for azide-coupling known to be accommodated and charged to tRNA by wt MbPylRS30 and […], MmPylRS5, was also tested. […] Neither of these large aliphatic alkynes or alkenes could be incorporated by either of three PylRS mutants with efficiency above 5%. […] The latter confirms the promiscuity of engineered PylRS variant to various substrates reported in a comprehensive study^35

[4] = test system: GCU Ser isoacceptor; assay: Kissing loop binding to tRNA isoacceptor; set-up: species or system E. coli; details: read-out: affinity
Procedure: Kissing loop (KL) binds GCU Ser isoacceptor with high affinity (5-50 nM) through the formation of quasi-continuous double helix stabilized by the common stacking column between the planes of the nucleotide pairs (FIG. 16A). E. coli S30 lysate can be to a large extent depleted of total tRNA by the chromatography on ethanolamine sepharose. After the depletion lysate retains ˜60% of translational efficiency of its parental one if supplemented by commercially available total tRNA fraction (FIG. 16 B).

[5] = A_151X template, % of wild type eGFP fluorescence, PylTcua 20 μM, PylRS variant 20 μM, nnAA 1 mM

## [N-]=[N+]=Nc1ccc(C[C@H](N)C(=O)O)cc1 [AzF, p-azidophenylalanine]
[1]
  amber suppression efficiency among flexizyme-charged nnAAs: best amber-codon incorporation efficiency; also recorded: highest translational activity
[2]
  GFP protein modified with AzF: more than 80%
[3]; GFP151AzF sample, TAG codon
  protein containing AzF (LC-MS/MS): more than 80%

## C#CCN[C@@H](CCCCN)C(=O)O [PrK, N-Propargyl-Lysine]
[3]; A_151X template
  incorporation with TCORS: essentially failed to incorporate
[3]; [5]
  UAG suppression efficiency with BCNRS: essentially failed to incorporate
  UAG suppression efficiency with PylRSAF: 13%

## Bicyclo [6.1.0] nonyne-Lysine [BCN]
[3]; [5]
  UAG suppression efficiency with BCNRS: 3%
[3]; A_151X template, BCNRS, TCORS, PylRSAF
  efficiency of UAG suppression by either of three PylRS mutants: very low

B1: MjY4: MjY tRNA with six mutations described in a later report (nucleic acid)
DNA: CCGGCGGTAGTTCAGCAGGGCAGAACGGCGGACTCTAAATCCGCATGGCAGGGGTTCAAATCCCCTCCGCCGGACCA
modifications: RNA, all phosphodiester, T or U not given here
notes: MjY tRNA with six mutations described in a later report
[3]; A_151X, 10 μM tRNA, 10 μM AzFRS, 1 mM AzF
  efficiency of MjY2 relative to the listed tRNA in AzF incorporation: slightly better

B2: KL: RNA aptamer binding the anticodon loop of tRNA(Ser)GCU; SEQ ID NO:7 (nucleic acid)
chain: GGTAGTGAGGTAGTTAGCAGATACCTCACTACCAACACACACACAACACACACACAACACACAAGCT
modifications: “kissing loop” coding sequence with linker
[4]
  Kd: 5 to 50 nM
